Assay results from patent publication US11154853B2, “Generation of data for use with antimicrobials” (GeneFluidics, Inc., priority 2017, dated 2021).
Like-named read-outs stand apart in the source and are kept apart here.

System: E. coli
Procedure: Susceptibility cultures can be started.
(§1) Then, the Proteus automated system can add 12 μL of 1M NaOH to the 30 μL sample. […] The Proteus system can then add 8 μL of 1M HCl. Ten microliters of the result can be placed on each of 4 sensors of the 16 available on the GeneFluidics, Inc. 16X EC chip. This chip can be incubated in the Proteus machine for 11 minutes at 43° C. After completion of this incubation, the chip can be washed and dried by Proteus. Ten microliters of 0.5 U/mL anti-fluorescein horseradish peroxidase (HRP) Fab fragments (Roche; diluted in 1.0% casein in […] phosphate-buffered saline, pH 7.4) can be injected into the sensor chambers and incubated for 2 minutes at 25° C.
as §1
For instance, a Helios potentiostat from GeneFluidics, Inc. was connected to the electrodes of the sensor chips and a potential of −250 mV was applied across the electrodes for one minute. During this time, the current generated by the electrochemical reaction was measured by the potentiostat. The average current measured in the final 10 seconds of the potentiostat reading constituted the final result of the assay.

O=C(O)c1cn(C2CC2)c2cc(N3CCNCC3)c(F)cc2c1=O [ciprofloxacin]
average current signal of the four sensors (base susceptibility test) (0 minute susceptibility culture time, 0.4 μg antibiotic in 100 μL Mueller-Hinton broth, 5×10^5 CFU/mL): 30 nA | increase over the current level from base susceptibility test (60 minute susceptibility culture time): 0% | current of processed sample (60 minute susceptibility culture time, 0.4 μg antibiotic in 100 μL Mueller-Hinton broth): 30 nA | increase over the current level from base susceptibility test (90 minute susceptibility culture time): 0% | reported result (resistant / susceptible) (E. coli from patient urine sample, at the concentration of antibiotic in the culture): susceptible
